“And” between values parts separate entries of the source, which are not always exact repeats. Identical values can stand only once.
Key:
[1] = target: T1, MMP9 mediated gelatinase activity (Rattus norvegicus, UniProt P50282); experiment: In situ zymography of gelatinase activity in livers of SCW-induced rats dosed with compound; format: in vivo; conditions: for Liver gelatinase Intensity, Mean / Liver gelatinase Intensity, individual rats: Day 25-28
T1 construct: from tissue; host or cells: liver cryosections of female Lewis rats
Source text: In situ zymography provides an alternative approach to assess active MMP9 in tissues (J Histochem Cytochem; 2004; 52:711-722). Tissue sections are overlain with fluorescein-conjugated gelatin wherein the conjugation is sufficiently dense to cause the fluorescein to be dye-quenched (DQ). Proteolytic degradation of the DQ-gelatin releases the fluorescein from the quenching effect giving rise to bright green fluorescence at the site of degradation. Because in situ zymography requires the use of frozen sections, calcified tissues are problematic. However, an additional feature of the SCW arthritis model is the development of hepatic granulomatous disease (J Immunol; 1986; 137:2199-2209), and MMP9 reportedly plays a role in macrophage recruitment in the granulomas response to mycobacteria (Infect Immun; 2006; 74:6135-6144). Consequently, granulomatous livers from SCW-treated rats were assessed for active MMP9 by in situ zymography.
As described above, Female Lewis (LEW/N) rats, 5-6 weeks of age (80-100 g) were injected (i.p.) with saline or SCW PG-PS. On day 28, when the granulomatous response was well established, animals were sacrificed and livers were frozen in OCT cryo-sectioning medium and 10 μm sections were cut on a Cryome HM 500 M cryotome and mounted on glass microscope slides. Sections were air dried briefly. MMP9 was confirmed as the source of the gelatinase activity in the liver by treating liver sections with monoclonal antibodies directed against the active site of the two major gelatinases MMP9 and MMP2. Liver sections overlain with 50 μL of 100 μg/mL neutralizing mouse monoclonal antibodies directed against MMP9 (Calbiochem, clone 6-6B), or MMP2 (Millipore, clone CA-4001), or with PBS for 1 hr at room temperature. Tissues were rinsed once with PBS, blotted, and briefly air dried and then overlain with DQ-gelatin (Invitrogen) dissolved to 1 mg/mL in deionized water and then diluted 1:10 in 1% wt/vol low gelling point agarose type VII (Sigma) in PBS. The sections were covered with coverslips, incubated in the dark at room temperature for 20 min, and imaged on an Olympus IX80 inverted microscope fitted with fluorescence optics, using SlideBook™ imaging software (Intelligent Imaging Innovations, Inc., Philadelphia, Pa.; version 5.0). Fluorescence intensity was determined (Table 9). When compared to a saline-treated rat, gelatinase activity was abundantly expressed in granulomatous liver sections obtained from a rat with SCW arthritis.
Next, liver in situ zymography was used to assess the relative presence of active MMP9 in rats dosed with vehicle vs. Compound α. Female Lewis (LEW/N) rats, 5-6 weeks of age (80-100 g) were injected (i.p.) with saline or SCW PG-PS. Commencing on day 25, randomized groups of rats (n=3 rats/group) received vehicle or 20 or 50 mg/kg Compound α BID by oral gavage. Vehicle consisted of an aqueous mixture containing 2% (v:v) N-methylpyrrolidone, 5% (v:v) glycerine, and 20% (w:v) captisol. Treatment continued daily through the morning of day 28.
Four hrs after the AM dose on day 28, rats were sacrificed and livers assessed for active MMP9 by in situ zymography (Table 10). Gelatinase activity was increased markedly in SCW-induced rats, but activity was reduced by approximately 80% in animals treated with 50 mg/kg Compound α.

[2] = tested on: rats with SCW-induced arthritis; experiment: Efficacy in rats with SCW-induced arthritis (ankle thickness, clinical score); format: in vivo, rat
Experimental: To induce arthritis, Female Lewis (LEW/N) rats, 5-6 weeks of age (80-100 g) were injected (i.p.) with SCW PG-PS as described above. Eighteen days later, arthritis was well established. Calipers were used to measure the width (anterior to posterior surface) of the left and right hind ankles of each rat. Each ankle was measured 3 times and averaged, and treatment groups were randomized based on ankle thickness (Table 7). Commencing on day 18, randomized groups of arthritic rats (n=5 rats/group) received vehicle or 5, 20, or 50 mg/kg Compound α BID by oral gavage. Vehicle consisted of an aqueous mixture containing 2% (v:v) N-methylpyrrolidone, 5% (v:v) glycerine, and 20% (w:v) captisol. Treatment continued daily through the morning of day 26.
By day 18 mean ankle thickness was increased an average of >4.4 mm compared to disease free rats. Rats treated with vehicle alone continued to gradually develop a more severe arthritis based on ankle thickness measurements over the eight-day treatment period (Table 7). […] By day 26, the disease associated increase in ankle thickness had been reduced 27, 37, and 46 percent by 5, 20, and 50 mg/kg Compound α, respectively.
Hind paw inflammation clinical scores were assigned based on swelling and erythema.

T1 sequence (P50282 108-708): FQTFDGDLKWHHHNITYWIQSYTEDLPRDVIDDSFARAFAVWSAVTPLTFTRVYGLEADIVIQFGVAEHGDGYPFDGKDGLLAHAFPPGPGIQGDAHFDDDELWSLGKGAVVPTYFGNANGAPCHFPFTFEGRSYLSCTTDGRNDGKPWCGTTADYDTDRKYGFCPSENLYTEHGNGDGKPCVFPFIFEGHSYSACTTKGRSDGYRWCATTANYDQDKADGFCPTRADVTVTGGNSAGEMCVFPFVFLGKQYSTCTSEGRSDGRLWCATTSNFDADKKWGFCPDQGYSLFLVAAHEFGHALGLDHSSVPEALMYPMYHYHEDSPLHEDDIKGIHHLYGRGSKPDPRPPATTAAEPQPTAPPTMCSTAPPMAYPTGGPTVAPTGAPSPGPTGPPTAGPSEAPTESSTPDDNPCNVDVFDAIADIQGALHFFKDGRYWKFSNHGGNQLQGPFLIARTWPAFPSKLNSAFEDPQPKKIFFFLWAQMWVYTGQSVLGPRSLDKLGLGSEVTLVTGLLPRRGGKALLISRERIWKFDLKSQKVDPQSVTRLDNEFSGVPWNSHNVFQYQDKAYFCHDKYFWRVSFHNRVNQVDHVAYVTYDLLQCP

How did the “Liver gelatinase Intensity, Mean” value ([1]; 20 mg/kg BID oral) turn out when `Cc1nc(C)c(-c2csc(Nc3cc(S(N)(=O)=O)ccc3OC(C)C)n2)s1` [Compound α, 3-(2′,4′-Dimethyl-[4,5′]bithiazolyl-2-ylamino)-4-isopropoxy-benzenesulfonamide.HBr] was run?
Its value is 55.2 RLU × 10^6.

And the “Liver gelatinase Intensity, individual rats” value ([1]; 20 mg/kg BID oral)?
Its value is 43.0 RLU × 10^6 and 69.0 RLU × 10^6 and 53.7 RLU × 10^6.

What about the “Liver gelatinase Intensity, Mean” value ([1]; 50 mg/kg BID oral) of the same compound?
Its value is 11.1 RLU × 10^6.

What about the “Liver gelatinase Intensity, individual rats” value ([1]; 50 mg/kg BID oral) of the same compound?
Its value is 3.2 RLU × 10^6 and 25.6 RLU × 10^6 and 4.5 RLU × 10^6.

And the “reduction of liver gelatinase activity” value ([1]; 50 mg/kg BID oral, day 28)?
The value was “approximately 80%”.

What about the “Day 26 % Inh of disease associated increase in ankle thickness” value ([2]; 5 mg/kg BID oral) of the same compound?
The value was 27%.

And the “Day 26 % Inh of disease associated increase in ankle thickness” value ([2]; 20 mg/kg BID oral)?
Its value is 37%.

And the “Day 26 % Inh of disease associated increase in ankle thickness” value ([2]; 50 mg/kg BID oral)?
Its value is 46%.

— patent US20120302573A1, “METHODS OF INHIBITING PRO MATRIX METALLOPROTEINASE ACTIVATION” (priority 2011, published 2012)
